Laboratory results taken from patent US5958918A, “Substituted (sulfinic acid, sulfonic acid, sulfonylamino or sulfinylamino) N-[(aminominomethyl)phenylalkyl]-azaheterocyclylamide compounds” (Rhone-Poulenc Rorer Pharmaceuticals Inc., priority 1997, dated 1999).
Structures can show the parent of a compound that is named as a salt.

Molecular target: factor Xa (Homo sapiens, UniProt P00742)
Assay: Factor Xa inhibitor enzyme assay (purified enzyme, chromogenic peptide-p-nitroanilide substrate; apparent Ki by Cheng-Prusoff)
Format: biochemical
Experimental: Factor Xa Inhibitor: Enzyme Assay Methods
All enzyme assays are carried out at room temperature in 96-well microtiter plates using a final enzyme concentration of 1 nM. The concentrations of factor Xa and thrombin are determined by active site titration and the concentrations of all other enzymes are based on the protein concentration supplied by the manufacturer. […] Compound dilutions are added to wells containing buffer and enzyme and pre-equilibrated for between 5 and 30 minutes. […] Under these conditions, less than 10% of the substrate is utilized in all assays. […] The apparent Ki values are then determined according to the Cheng-Prusoff equation (IC50=Ki [1+[S]/Km]) assuming competitive inhibition kinetics.

Chain of factor Xa (P00742 235-488 limits assumed): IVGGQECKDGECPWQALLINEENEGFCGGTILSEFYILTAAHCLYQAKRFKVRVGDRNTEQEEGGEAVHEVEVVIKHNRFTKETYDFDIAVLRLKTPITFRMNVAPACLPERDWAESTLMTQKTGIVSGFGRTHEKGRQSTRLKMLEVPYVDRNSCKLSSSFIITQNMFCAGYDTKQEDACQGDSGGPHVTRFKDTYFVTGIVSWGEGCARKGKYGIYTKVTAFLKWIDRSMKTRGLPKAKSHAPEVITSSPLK
Chain of factor Xa (P00742 41-179 partner limits assumed): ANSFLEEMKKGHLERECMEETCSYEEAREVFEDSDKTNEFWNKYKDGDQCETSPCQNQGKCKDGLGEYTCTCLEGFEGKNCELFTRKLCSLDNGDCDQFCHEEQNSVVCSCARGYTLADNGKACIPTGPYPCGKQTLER

SMILES: N=C(N)c1cccc(CN2CC[C@H](NS(=O)(=O)c3ccc(-c4ccccn4)s3)C2=O)c1 [Example 7, 5-Pyrid-2-ylthiophene-2-sulfonic acid {1-[3-(aminoiminomethyl)benzyl]-2-oxopyrrolidin-3-(S)-yl}amide trifluoroacetate]
- Ki: 0.1 µM
